Paper PMC10391610, “Survivin prevents the polycomb repressor complex 2 from methylating histone 3 lysine 27” (iScience, 2023)

Target: T1, survivin (Homo sapiens, UniProt O15392)
T1 construct: transferred to the survivin1-142 construct used in the present study; His8 tag (pHIS8 vector, thrombin-cleavable); made in house; host or cells: E. coli BL21(DE3) star
Assay: Biolayer interferometry, immobilized EZH2 peptide, survivin as analyte
Type: binding
Description: EZH2_178-211 peptide from previous peptide microarray experiments were used as immobilized ligands using amine reactive second-generation biosensor (AR2G, Fortebio, Fremont, CA, USA). Ethanolamine was used to quench unbound AR2G surface to prevent non-specific interactions. The biosensor was incubated in MQ water for 15 minutes before use in the Octet instrument (Fortebio, Fremont, CA, USA) with the following settings: equilibration in water for 60 s and 1000 rpm shaking, activation in EDC/s-NHS for 300 s at 1000 rpm, peptide immobilization in immobilization buffer pH 6.0 (Fortebio) for 900 s and 1000 rpm (50 μM for the peptide), quenching with 1 M ethanolamine for 300 s and 1000 rpm, baseline measurement in survivin SEC buffer for 600 s and 1000 rpm, association with survivin (100 nM, 33.3 nM, 11.1 nM, and 3.7 nM concentrations) as the experiment analyte for 600 s and 1000 rpm, and dissociation step in survivin SEC buffer for 1200 s and 1000 rpm. The assay was performed at 30°C. The reference wells and reference biosensors were subtracted.
Δλ(t) values were converted to dimensionless quantities by dividing the wavelength shifts with 1 nm prior to the analysis. To develop the model, we tentatively assumed Langmuir’s 1:1 model.[85] The kinetic modelling was performed with the pymc3 python package[66] using a Bayesian model: p(KD,app|lower=10^−15,upper=10^−3)=1/upper−lower p(k−1|lower=10^−20,upper=10)=1/upper−lower k1=k−1/KD,app p(A|lower=10^−6,upper=10)=1/upper−lower p(ε|lower=10^−6,upper=1)=1/upper−lower p(Δλ(0)|μ=⟨Δλi⟩,σ=1/10∑(Δλi−⟨Δλi⟩)^2/n)=1/2πσe^−1/2σ(Δλ(t)−μ)^2;Δλ(0)∈[10^−20,+∞]
The association and dissociation phases were modelled simultaneously, and the probability of wavelength shift during association phase was modeled as: p(Δλ(t)|μ=Ac/KD,app+c(1−e^−(k1c+k−1)t),σ=ε)=1/2πσe^−1/2σ(Δλ(t)−μ)^2
The probability of wavelength shift during the dissociation phase was modelled as: p(Δλ(t)|μ=Δλ(0)e^−k−1t,σ=ε)=1/2πσe^−1/2σ(Δλ(t)−μ)^2, where A and k1 are the amplitude and rate constant of the exponential association process, respectively. The concentration of the analyte is c and KD,app is the apparent dissociation constant. The dissociation rate constant is marked with k-1. ε represents the standard deviation of Δλ(t) . The total amplitude of wavelength shift is the wavelength shift at the beginning of the dissociation phase ( Δλ(0) ). Its prior distribution is modeled by a truncated normal distribution with parameters based on an empirical Bayes estimate of the starting observations. The data points in the interval 0 to 1 s are represented by the index i. The residual plots from the Bayesian model used in the BLI experiment with peptide EZH2_172-211 and survivin are shown in Figure S6.

T1 sequence (O15392 whole entry): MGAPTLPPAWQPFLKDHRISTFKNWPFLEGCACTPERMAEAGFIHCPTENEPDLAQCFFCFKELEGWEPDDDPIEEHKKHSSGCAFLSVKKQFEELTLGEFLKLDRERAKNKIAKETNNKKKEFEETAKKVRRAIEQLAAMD

## VELVNALGQYNDDDDDDDGD DPEEREEKQKDLEDHRDDKE [EZH2_172-211, PRC2-derived peptide, EZH2 residues 172–211, synthesized by Biomatik]
EZH2_172-211-coated sensors, survivin 100, 33 and 11 nM
  BLI interaction (in words): Survivin interacted with EZH2_172-211-coated sensors at concentrations of 100, 33, and 11 nM
Summary of posterior parameters, when the apparent dissociation constant is well defined
  apparent dissociation constant (in words): nanomolar interaction
Survivin 3.7 nM, posterior mean ± SD
  A (amplitude of association): 0.18 ± 0.21 nm
Survivin 33 nM, posterior mean, SD 1.8×10-4
  A (amplitude of association): 0.11 nm
Survivin 100 nM, posterior mean, SD 1.1×10-4
  A (amplitude of association): 0.23 nm
